Values of other authors as cited in patent US10674699B2, “Endophyte enhanced seedlings with increased pest tolerance” (priority 2006, dated 2020).

System: spruce budworm cells
Settings: Can J Chem 81: 284; cited from earlier work

## trihydroxy-4-1′-hydroxyethyl) isocoumarin
  toxicity to spruce budworm cells: ^camong others; a new compound trihydroxy-4-1′-hydroxyethyl) isocoumarin also toxic to spruce budworm cells (Can J Chem 81: 284)
